This note sets out measurements from ChEMBL document CHEMBL4665812, “Targeting Her2-insYVMA with Covalent Inhibitors-A Focused Compound Screening and Structure-Based Design Approach” (J Med Chem, 2020).

What is called IC50 is the midpoint of a concentration-inhibition curve. The efflux ratio is a quotient of directional permeabilities that is used to spot active efflux. By Ki is commonly meant the equilibrium dissociation constant of an inhibitor or competing ligand from its target. Lower therefore signals higher affinity.

Each structure is given as a SMILES string. Values after ≈ are worked out from the molar mass of the structure shown. Active and inactive are the calls of the source. No cut-off for these calls is given here.

Data set [1] can be described thus: cells. In kind it is cell-based. The following applies: Homo sapiens, NCI-H1781, 96 h.
Description: Inhibition of HER2-G776delinsVC mutant (unknown origin) expressed in human H1781 cells assessed as reduction in HER2 induced cell viability after 96 hrs by CellTiter-Glo assay
The species named for data set [2] is Homo sapiens. The data set can be described thus: Inhibition of S6 phosphorylation at T202/204 residues in human H1781 cells after 1 hrs by Western blot analysis. In kind it is cell-based. To be noted: dose nM 10-500, time 1.0 hrs. Background: In western blotting, separated proteins are transferred to a membrane and probed.
The species named for data set [3] is Homo sapiens. The data set can be described thus: Inhibition of MAPK phosphorylation at T202/204 residues in human H1781 cells after 1 hrs by Western blot analysis. The following applies: dose nM 10-500, time 1.0 hrs. The data set is classed as cell-based.
Data set [4] in a line: Ratio of apparent permeability across basolateral to apical over apical to basolateral side in human Caco2 cells at 5 uM after 2 hrs by transwell assay. In kind it is ADME, cell-based. The following applies: Caco-2. For orientation: Caco-2 monolayers are a common model of the intestinal barrier.
Data set [5] has as its target Epidermal growth factor receptor (Homo sapiens, UniProt P00533, L858R). The data set is described as follows: Inhibition of human N-terminal GST-tagged EGFR L858R mutant (669 to 1210 residues) expressed in baculovirus infected Sf9 insect cells using TK as substrate preincubated for 30 mins followed by substrate addition and measured after 15 mins by HTRF assay. A general note: TR-FRET usually uses a lanthanide donor and a delayed reading to cut background.

Data set [6] is described as follows: Intrinsic clearance in human liver microsomes at 3 uM measured up to 50 mins by LC-MS analysis. The following applies: read-out: CLH. The data set is classed as ADME, Microsome.
A short description of data set [7]: Solubility of compound in aqueous buffer at pH 7.4 after 120 mins by turbidometric assay. The data set is classed as physicochemical.
The nature of data set [8]: Intrinsic clearance in mouse liver microsomes at 3 uM measured up to 60 mins by LC-MS analysis. In kind it is ADME, Microsome. To be noted: read-out: CLH.
Data set [9] concerns the target Epidermal growth factor receptor (Homo sapiens, UniProt P00533, L858R/T790M). The data set is described as follows: Inhibition of human N-terminal GST-tagged EGFR L858R/T790M mutant (669 to 1210 residues) expressed in baculovirus infected Sf9 insect cells using TK as substrate preincubated for 30 mins followed by substrate addition and measured after 20 mins by HTRF assay.

Data set [10] is described as follows: Inhibition of HER2-A775_G776insYVMA mutant (unknown origin) expressed in mouse BaF3 cells assessed as reduction in HER2 induced cell viability after 96 hrs by CellTiter-Glo assay. In kind it is cell-based. The following applies: BaF3, 96 h.
Data set [11] is described as follows: Inhibition of C-terminal His6-tagged HER2-A775_G776insYVMA mutant (703 to 1029 residues) (unknown origin) expressed in Sf9 insect cells using TK as substrate measured up to 2 to 40 mins by fluorescence assay. The arrangement: species or system Homo sapiens.
Data set [12] can be described thus: Stability of compound in human plasma assessed as parent compound remaining at 5 uM measured for 1 hr by LC-MS analysis. To be noted: read-out: Stabilty. The data set is classed as ADME, cell-free.
A short description of data set [13]: Apparent permeability across apical side to basolateral side in human Caco-2 cells at 5 uM after 2 hrs by transwell assay. The following applies: read-out: permeability. In kind it is ADME, cell-based.
The nature of data set [14]: Stability of compound in mouse plasma assessed as parent compound remaining at 5 uM measured for 1 hr by LC-MS analysis. In kind it is ADME, cell-free. To be noted: read-out: Stabilty.
Data set [15] has as its target T1, Receptor tyrosine-protein kinase erbB-2 (Homo sapiens, UniProt P04626). The data set is described as follows: Inhibition of HER2 in human H1781 cells assessed as reduction in HER2 phosphorylation at Y1248 residues after 1 hrs by Western blot analysis. The data set is classed as cell-based. To be noted: dose nM 10-500, time 1.0 hrs.
The target in data set [16] is Epidermal growth factor receptor (Homo sapiens, UniProt P00533). The data set is described as follows: Inhibition of human N-terminal GST-tagged EGFR (669 to 1210 residues) expressed in baculovirus infected Sf9 insect cells using TK as substrate preincubated for 30 mins followed by substrate addition and measured after 25 mins by HTRF assay.
Data set [17] is described as follows: Apparent permeability across basolateral side to apical side in human Caco-2 cells at 5 uM after 2 hrs by transwell assay. The data set is classed as ADME, cell-based. The following applies: read-out: permeability.
The nature of data set [18]: Inhibition of C-terminal His6-tagged HER2-A775_G776insYVMA mutant (703 to 1029 residues) (unknown origin) expressed in Sf9 insect cells assessed as Kinact using TK as substrate measured up to 2 to 40 mins by fluorescence assay. The following applies: Homo sapiens, time min 2-40.
Data set [19] concerns the target T1, Receptor tyrosine-protein kinase erbB-2. The data set can be described thus: Inhibition of HER2 in human H1781 cells assessed as reduction in HER2 phosphorylation at Y1221/1222 residues after 1 hrs by Western blot analysis. In kind it is cell-based. To be noted: dose nM 10-500, time 1.0 hrs.
For data set [20] the target is unchanged. The data set is described as follows: Inhibition of C-terminal His6-tagged HER2 (703 to 1029 residues) (unknown origin) expressed in Sf9 insect cells using TK as substrate preincubated for 30 mins followed by substrate addition and measured after 60 mins in presence of XL665-labeled streptavidin by HTRF assay.
Data set [21] has as its target Serine/threonine-protein kinase AKT (Homo sapiens) (UniProt P31751+Q9Y243+P31749). The data set can be described thus: Inhibition of AKT phosphorylation at S473 residues in human H1781 cells after 1 hrs by Western blot analysis. In kind it is cell-based. To be noted: dose nM 10-500, time 1.0 hrs.
Data set [22] can be described thus: Intrinsic clearance in human liver microsomes at 1 uM measured up to 50 mins by LC-MS analysis. In kind it is ADME, Microsome. The following applies: read-out: CLH.
Data set [23] can be described thus: Intrinsic clearance in mouse liver microsomes at 1 uM measured up to 60 mins by LC-MS analysis. To be noted: read-out: CLH. The data set is classed as ADME, Microsome.
Data set [24] addresses T1, Receptor tyrosine-protein kinase erbB-2. The data set is described as follows: Inhibition of HER2 in human H1781 cells assessed as reduction in HER2 phosphorylation at Y1221/1222 residues at 100 to 500 nM after 1 hrs by Western blot analysis. The following applies: dose nM 100-500, time 1.0 hrs. In kind it is cell-based.
Data set [25] in a line: Kinetic solubility of compound in HEPES buffer a pH 7.4 at 500 uM after 90 mins. In kind it is physicochemical. To be noted: read-out: Kinetic_solubility.
The target in data set [26] is T1, Receptor tyrosine-protein kinase erbB-2. The data set can be described thus: Inhibition of HER2 in human H1781 cells assessed as reduction in HER2 phosphorylation at Y1248 residues at 100 to 500 nM after 1 hrs by Western blot analysis. The data set is classed as cell-based. The following applies: dose nM 100-500, time 1.0 hrs.

Chain of Epidermal growth factor receptor (Homo sapiens, UniProt P00533) (P00533 whole entry, the tested form may be a part): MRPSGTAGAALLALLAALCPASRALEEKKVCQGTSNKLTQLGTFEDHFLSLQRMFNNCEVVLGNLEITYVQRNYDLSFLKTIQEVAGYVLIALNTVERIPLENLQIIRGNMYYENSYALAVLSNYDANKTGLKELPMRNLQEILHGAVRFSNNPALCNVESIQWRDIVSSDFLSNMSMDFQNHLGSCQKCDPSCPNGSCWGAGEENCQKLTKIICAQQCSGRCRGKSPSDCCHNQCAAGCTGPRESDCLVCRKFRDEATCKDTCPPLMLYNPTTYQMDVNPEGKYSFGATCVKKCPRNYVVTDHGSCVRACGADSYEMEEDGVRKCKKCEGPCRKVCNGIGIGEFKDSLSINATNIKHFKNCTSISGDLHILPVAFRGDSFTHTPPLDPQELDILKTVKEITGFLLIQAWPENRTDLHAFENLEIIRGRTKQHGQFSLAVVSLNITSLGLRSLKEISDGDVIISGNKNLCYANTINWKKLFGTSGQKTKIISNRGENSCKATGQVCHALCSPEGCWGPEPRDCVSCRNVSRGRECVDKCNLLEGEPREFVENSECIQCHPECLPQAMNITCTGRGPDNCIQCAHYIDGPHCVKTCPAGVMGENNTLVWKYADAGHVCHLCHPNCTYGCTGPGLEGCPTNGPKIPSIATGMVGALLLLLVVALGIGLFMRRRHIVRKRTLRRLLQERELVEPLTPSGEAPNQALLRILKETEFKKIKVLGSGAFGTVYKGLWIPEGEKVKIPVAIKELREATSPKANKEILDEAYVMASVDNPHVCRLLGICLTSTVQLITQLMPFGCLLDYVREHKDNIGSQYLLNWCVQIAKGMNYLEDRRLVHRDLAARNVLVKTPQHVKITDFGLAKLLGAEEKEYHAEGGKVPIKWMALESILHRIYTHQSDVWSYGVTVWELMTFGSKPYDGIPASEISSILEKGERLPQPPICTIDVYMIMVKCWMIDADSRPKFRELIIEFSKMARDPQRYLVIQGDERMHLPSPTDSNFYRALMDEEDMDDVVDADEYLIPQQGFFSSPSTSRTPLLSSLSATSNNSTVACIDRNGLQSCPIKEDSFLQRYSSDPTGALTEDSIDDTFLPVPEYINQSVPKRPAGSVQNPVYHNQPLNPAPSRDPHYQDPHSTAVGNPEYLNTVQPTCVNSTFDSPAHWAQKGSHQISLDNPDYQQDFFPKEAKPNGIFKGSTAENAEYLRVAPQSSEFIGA
T1 sequence (P04626 whole entry, the tested form may be a part): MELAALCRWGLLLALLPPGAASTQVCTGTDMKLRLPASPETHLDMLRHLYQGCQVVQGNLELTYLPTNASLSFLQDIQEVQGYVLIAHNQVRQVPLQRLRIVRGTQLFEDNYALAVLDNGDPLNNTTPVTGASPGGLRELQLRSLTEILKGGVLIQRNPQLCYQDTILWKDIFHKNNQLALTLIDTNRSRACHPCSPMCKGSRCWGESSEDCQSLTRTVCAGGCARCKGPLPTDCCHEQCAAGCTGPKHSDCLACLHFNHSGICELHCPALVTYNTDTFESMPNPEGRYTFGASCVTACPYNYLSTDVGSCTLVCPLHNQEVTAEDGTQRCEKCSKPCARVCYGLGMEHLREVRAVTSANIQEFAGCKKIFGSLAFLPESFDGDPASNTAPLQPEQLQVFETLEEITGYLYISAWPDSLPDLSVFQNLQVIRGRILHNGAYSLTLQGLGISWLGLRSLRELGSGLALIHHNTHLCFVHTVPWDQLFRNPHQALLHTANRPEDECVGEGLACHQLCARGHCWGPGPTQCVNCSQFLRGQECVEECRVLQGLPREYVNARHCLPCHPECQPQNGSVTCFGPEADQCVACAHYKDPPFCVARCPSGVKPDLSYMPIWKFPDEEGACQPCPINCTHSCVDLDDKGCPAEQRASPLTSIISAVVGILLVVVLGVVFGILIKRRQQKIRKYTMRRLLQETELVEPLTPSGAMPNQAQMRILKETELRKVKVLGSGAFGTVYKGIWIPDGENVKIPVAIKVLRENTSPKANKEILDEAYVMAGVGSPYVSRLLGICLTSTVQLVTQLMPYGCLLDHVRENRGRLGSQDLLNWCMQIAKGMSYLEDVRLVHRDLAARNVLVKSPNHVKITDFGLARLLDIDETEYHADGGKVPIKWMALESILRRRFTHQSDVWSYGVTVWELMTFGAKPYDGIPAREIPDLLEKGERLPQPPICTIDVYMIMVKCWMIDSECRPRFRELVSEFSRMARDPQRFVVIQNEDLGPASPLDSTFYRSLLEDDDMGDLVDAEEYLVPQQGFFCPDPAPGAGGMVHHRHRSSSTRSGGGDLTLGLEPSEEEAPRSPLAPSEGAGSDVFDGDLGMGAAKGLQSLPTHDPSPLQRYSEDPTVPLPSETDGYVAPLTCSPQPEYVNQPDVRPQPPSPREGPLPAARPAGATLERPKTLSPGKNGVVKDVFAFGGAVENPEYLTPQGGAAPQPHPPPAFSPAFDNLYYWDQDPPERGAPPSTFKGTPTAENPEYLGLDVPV
Chain of Epidermal growth factor receptor (Homo sapiens, UniProt P00533, L858R) (P00533 25-1210 L858R limits assumed): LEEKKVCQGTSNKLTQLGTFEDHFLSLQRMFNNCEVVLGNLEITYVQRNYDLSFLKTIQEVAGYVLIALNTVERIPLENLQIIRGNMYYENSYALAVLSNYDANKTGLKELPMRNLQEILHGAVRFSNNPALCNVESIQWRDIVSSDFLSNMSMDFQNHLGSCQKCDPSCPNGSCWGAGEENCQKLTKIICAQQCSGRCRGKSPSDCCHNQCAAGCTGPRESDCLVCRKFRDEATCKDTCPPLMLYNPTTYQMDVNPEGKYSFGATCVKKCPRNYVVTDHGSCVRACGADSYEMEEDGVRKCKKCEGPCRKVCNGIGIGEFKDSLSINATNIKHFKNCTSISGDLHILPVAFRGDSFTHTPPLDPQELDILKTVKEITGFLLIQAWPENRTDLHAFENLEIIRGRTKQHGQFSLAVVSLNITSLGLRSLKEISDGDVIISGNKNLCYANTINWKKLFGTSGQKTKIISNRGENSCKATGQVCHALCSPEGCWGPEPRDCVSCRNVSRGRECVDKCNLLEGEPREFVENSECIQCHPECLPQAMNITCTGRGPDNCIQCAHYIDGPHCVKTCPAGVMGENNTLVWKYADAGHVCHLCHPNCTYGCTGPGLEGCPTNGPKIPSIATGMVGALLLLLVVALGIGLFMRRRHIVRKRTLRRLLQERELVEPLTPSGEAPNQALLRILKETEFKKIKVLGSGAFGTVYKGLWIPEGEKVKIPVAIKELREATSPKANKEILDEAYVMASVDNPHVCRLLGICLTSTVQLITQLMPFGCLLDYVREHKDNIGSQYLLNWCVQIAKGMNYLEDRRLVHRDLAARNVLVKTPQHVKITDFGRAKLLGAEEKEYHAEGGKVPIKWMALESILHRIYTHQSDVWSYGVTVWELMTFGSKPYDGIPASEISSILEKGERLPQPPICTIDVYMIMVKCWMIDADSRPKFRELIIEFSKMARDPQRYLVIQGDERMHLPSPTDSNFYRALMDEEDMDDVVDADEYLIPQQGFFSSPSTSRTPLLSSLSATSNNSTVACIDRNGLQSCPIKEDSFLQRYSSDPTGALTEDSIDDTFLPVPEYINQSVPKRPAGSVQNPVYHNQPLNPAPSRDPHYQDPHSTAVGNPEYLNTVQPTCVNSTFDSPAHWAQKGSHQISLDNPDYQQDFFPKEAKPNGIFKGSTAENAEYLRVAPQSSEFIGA
Chain of Serine/threonine-protein kinase AKT (Homo sapiens) (P31749 whole entry, looked up): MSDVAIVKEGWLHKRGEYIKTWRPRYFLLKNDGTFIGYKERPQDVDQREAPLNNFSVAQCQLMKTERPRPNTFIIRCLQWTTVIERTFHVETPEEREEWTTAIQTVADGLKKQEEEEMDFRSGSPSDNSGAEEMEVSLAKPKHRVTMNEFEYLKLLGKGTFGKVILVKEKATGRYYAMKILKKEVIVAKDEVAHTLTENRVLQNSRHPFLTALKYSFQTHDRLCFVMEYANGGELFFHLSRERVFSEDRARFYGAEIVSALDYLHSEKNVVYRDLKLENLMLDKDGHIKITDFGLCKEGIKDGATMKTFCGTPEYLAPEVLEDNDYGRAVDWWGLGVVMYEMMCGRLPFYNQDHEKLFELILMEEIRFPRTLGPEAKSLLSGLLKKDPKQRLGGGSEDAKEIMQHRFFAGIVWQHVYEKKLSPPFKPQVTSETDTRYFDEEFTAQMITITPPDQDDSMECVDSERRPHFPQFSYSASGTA
Chain of Serine/threonine-protein kinase AKT (Homo sapiens) (P31751 whole entry, looked up): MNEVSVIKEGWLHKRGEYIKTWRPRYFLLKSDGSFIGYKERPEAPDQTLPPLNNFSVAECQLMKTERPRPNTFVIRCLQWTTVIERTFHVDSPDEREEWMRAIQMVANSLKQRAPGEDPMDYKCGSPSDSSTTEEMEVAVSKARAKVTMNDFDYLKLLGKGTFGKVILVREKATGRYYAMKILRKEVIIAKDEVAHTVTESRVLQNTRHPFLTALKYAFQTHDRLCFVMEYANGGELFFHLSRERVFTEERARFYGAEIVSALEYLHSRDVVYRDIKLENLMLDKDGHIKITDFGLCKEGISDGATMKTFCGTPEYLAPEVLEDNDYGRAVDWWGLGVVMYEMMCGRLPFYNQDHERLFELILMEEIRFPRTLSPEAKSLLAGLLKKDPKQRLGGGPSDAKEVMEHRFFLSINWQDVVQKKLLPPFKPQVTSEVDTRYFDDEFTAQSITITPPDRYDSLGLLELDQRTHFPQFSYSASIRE
Chain of Serine/threonine-protein kinase AKT (Homo sapiens) (Q9Y243 whole entry, looked up): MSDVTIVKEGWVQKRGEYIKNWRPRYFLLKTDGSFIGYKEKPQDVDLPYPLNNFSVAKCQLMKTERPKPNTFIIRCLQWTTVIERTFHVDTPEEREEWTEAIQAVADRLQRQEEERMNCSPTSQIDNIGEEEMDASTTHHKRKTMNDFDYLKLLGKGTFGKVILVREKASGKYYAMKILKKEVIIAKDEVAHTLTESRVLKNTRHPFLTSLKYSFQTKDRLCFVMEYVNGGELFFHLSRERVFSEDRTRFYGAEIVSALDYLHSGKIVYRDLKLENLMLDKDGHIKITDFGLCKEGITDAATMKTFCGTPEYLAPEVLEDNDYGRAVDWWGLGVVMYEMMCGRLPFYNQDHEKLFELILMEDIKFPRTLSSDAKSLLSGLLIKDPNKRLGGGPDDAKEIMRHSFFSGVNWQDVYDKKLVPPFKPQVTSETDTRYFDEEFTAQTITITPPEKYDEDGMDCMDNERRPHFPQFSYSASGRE

With `C=CC(=O)Nc1cccc(-c2c[nH]c3ncnc(Nc4ccc(OCc5ccccn5)c(Cl)c4)c23)c1`, the IC50 in [1] came out at 161 nM; in data set [5] it was 0.1 nM; in [9] it was 3.9 nM; in data set [10], 83 nM; in data set [16] it was 0.08 nM; in data set [20] it was 11 nM. In addition, the inhibition entry in data set [2], in data set [3], in [15], in [19] and in data set [21] was “Dose-dependent effect” throughout. The efflux ratio at 2 h, 5 µM in [4] is 0.3. Besides, the microsomal CLint at 3 µM in data set [6] worked out at 27.7 µL/min/mg; in [8] it was 125 µL/min/mg. In [7], this compound came in with a solubility kinetic at 2 h of 30 µM (≈ 14.9 µg/mL). The compound further came in with a Ki in data set [11] of 54 nM. Also, the remaining at 1 h, 5 µM in data set [12] was 79.8%; in data set [14] it was 49%. In addition, in [13], the Papp A→B at 2 h, 5 µM was 1.9 ×10⁻⁶ cm/s. Besides, the Papp B→A at 2 h, 5 µM in data set [17] amounted to 0.6 ×10⁻⁶ cm/s. Further, the Kinact in [18] came to 0.136 min⁻¹.
Turning to `C=CC(=O)Nc1cc(-c2c[nH]c3ncnc(Nc4ccc5c(cnn5Cc5ccccc5)c4)c23)ccc1OCCO`, the figures for the microsomal CLint at 1 µM in data set [22] and in data set [23] were 66 µL/min/mg and 603 µL/min/mg, respectively. The IC50 in data set [1] stood at 508 nM; in [5], 0.1 nM; in data set [9], 6 nM; in data set [10], 159 nM; in [16] it was 0.07 nM; in [20] it was 14 nM. Further, the efflux ratio at 2 h, 5 µM in data set [4] came out at 4.5. The solubility kinetic at 2 h in [7] was determined as 30 µM (≈ 16.4 µg/mL). For the same compound, the affinity in data set [11] corresponds to a Ki of 67 nM. The remaining at 1 h, 5 µM in [12] was determined as 90.9%; in data set [14] it was 88.4%. Moreover, in data set [13], the Papp A→B at 2 h, 5 µM came to 1.2 ×10⁻⁶ cm/s. The inhibition entry in [24] and in data set [26] was “Active” each time. Also, the solubility kinetic at 1.5 h, 500 µM in data set [25] stood at 16.8 µM (≈ 9.17 µg/mL). In addition, the Papp B→A at 2 h, 5 µM in data set [17] worked out at 5.2 ×10⁻⁶ cm/s. Further, the Kinact in data set [18] is 0.138 min⁻¹.
With `C=CC(=O)Nc1cccc(-c2c[nH]c3ncnc(Nc4ccc(CN5C(=O)c6ccccc6C5=O)cc4)c23)c1`, the microsomal CLint at 1 µM in data set [22] came out at 96.3 µL/min/mg; in data set [23], 770 µL/min/mg. For the same compound, the IC50 was 419 nM in data set [1]; 0.2 nM in data set [5]; 33 nM in data set [9]; 381 nM in [10]; 0.4 nM in [16]; 11 nM in [20]. The inhibition entry in [2], in [3], in data set [15], in data set [19] and in data set [21] was “Dose-dependent effect” each time. The efflux ratio at 2 h, 5 µM in data set [4] stood at 0.2. This compound registered a solubility kinetic at 2 h in data set [7] of 30 µM (≈ 15.4 µg/mL). For the same compound, the inhibition constant Ki in data set [11] came to 143 nM. Further, the remaining at 1 h, 5 µM in data set [12] was 78.1%; in data set [14] it was 81.3%. The Papp A→B at 2 h, 5 µM in [13] was found to be 0.5 ×10⁻⁶ cm/s. The solubility kinetic at 1.5 h, 500 µM in data set [25] turned out to be 8.3 µM (≈ 4.27 µg/mL). The Papp B→A at 2 h, 5 µM in data set [17] was 0.1 ×10⁻⁶ cm/s. In addition, in data set [18], the Kinact was 0.132 min⁻¹.
On to `C=CC(=O)Nc1cc(-c2c[nH]c3ncnc(Nc4ccc(OCc5ccccn5)c(Cl)c4)c23)ccc1OCCN(C)C`, for which the microsomal CLint at 1 µM came out at 64.2 µL/min/mg in data set [22] and 866 µL/min/mg in data set [23]. Moreover, the IC50 in [1] was determined as 164 nM; in data set [5] it was 0.1 nM; in data set [9], 2 nM; in data set [10] it was 120 nM; in [16] it was 0.09 nM; in [20], 15 nM. Further, in data set [4], the efflux ratio at 2 h, 5 µM is 11.4. Further, the solubility kinetic at 2 h in data set [7] is 100 µM (≈ 58.4 µg/mL). This compound also displayed a Ki in data set [11] of 49 nM. The remaining at 1 h, 5 µM amounted to 74.4% in [12] and 0.8% in data set [14]. For the same compound, in data set [13], the Papp A→B at 2 h, 5 µM came to 2.1 ×10⁻⁶ cm/s. In addition, the inhibition entry in data set [24] and in [26] was “Active” in each case. Moreover, in [25], the solubility kinetic at 1.5 h, 500 µM turned out to be 60.6 µM (≈ 35.4 µg/mL). Besides, the Papp B→A at 2 h, 5 µM in [17] was 23.9 ×10⁻⁶ cm/s. Further, the Kinact in data set [18] came to 0.212 min⁻¹.
For the compound `CCOc1cc2ncc(C#N)c(Nc3ccc(OCc4ccccn4)c(Cl)c3)c2cc1NC(=O)/C=C/CN(C)C` [NERATINIB], the IC50 in data set [1] is 148 nM; in data set [10] it was less than 14 nM. In addition, the microsomal CLint at 3 µM in data set [6] was determined as 42 µL/min/mg; in [8] it was 126 µL/min/mg. In data set [7], this compound yielded a solubility kinetic at 2 h greater than 10 µM. In data set [11], this compound came in with a Ki of 6.3 nM. Besides, the remaining at 1 h, 5 µM is 80.7% in [12] and 97.4% in data set [14]. For the same compound, the Papp A→B at 2 h, 5 µM in data set [13] worked out at 0.09 ×10⁻⁶ cm/s. Besides, the solubility kinetic at 1.5 h, 500 µM in [25] came out at 1.2 µM (≈ 0.668 µg/mL). The Papp B→A at 2 h, 5 µM in data set [17] came out at 0.4 ×10⁻⁶ cm/s.
